Values after ≈ are worked out from the molar mass of the structure shown. Read-outs that look alike come from different tables or passages of the source. Peptide text beside a SMILES is read from it.
Assays:
[1] = Method: Mice used in this study were female Swiss Webster aged approximately 6-7 weeks and sourced from the University of Otago Biomedical Research Facility. […] Briefly, the fur on the back of each mouse was removed by shaving and chemical depilation. Antibiotics were tested for skin toxicity by injecting 50 μL of antibiotic suspension subcutaneously into naïve mice, and subsequent inspection of the skin for inflammation on the next day. P. aeruginosa LESB58 was grown to mid-log phase in dYT broth, washed twice in sterile PBS (Gibco, pH 7.4), and resuspended in PBS to ~1 x 10^8 CFU per 50 μL inoculum. The bacterial suspension (50 μL) was injected subcutaneously into the right side of the dorsum, followed one hour later by 50 μL of antibiotic treatment injected directly into the infected area. […] Combination treatments were administered as a single 50 μL injection containing both antibiotics. The concentration of each antibiotic in the combination was the same as when it was used alone. Progression of the infection was monitored daily, and abscess dimensions were measured on day three using a calliper. On day three, abscess tissue and pus were excised, homogenized in sterile PBS using SPEX SamplePrep 1600 MiniG for five minutes and bacterial CFU counts determined by serial dilution.
P. aeruginosa LESB58-lux = assay: In vitro synergy, checkerboard assay (luminescence readout); format: cell-based, Pseudomonas aeruginosa; details: LESB58-lux; for FICI, drug combined with CAZ / FICI, drug combined with CZA: FICI <= 0.5 indicates synergy
Method: (§1) For susceptibility testing under standard conditions, bacteria were cultured in Muller Hinton Broth MHB (Fort Richards Laboratories). Host mimicking conditions in vitro were simulated using tissue culture medium (TCM) consisting of Dulbecco’s modified Eagle medium (DMEM; Gibco #11965) supplemented with FBS (Moregate Biotech) (5% v/v) and glucose (1% w/v). Further susceptibility testing was also conducted in MHB supplemented with FBS (5% v/v) and DMEM supplemented with glucose (1% w/v) and MHB (10% v/v).
(§2) The P. aeruginosa LESB58.lux strain was used for in vitro synergy experiments with azithromycin in MHB and all antibiotic combinations in TCM to determine bacterial growth (as visual inspection and absorbance measurements were unreliable). Synergy was determined using the checkerboard method ([Berenbaum, 1978]; [Pletzer and Hancock, 2018]) in at least triplicate. Each antibiotic was two-fold serially diluted in sterile water before transferring to a 96-well plate containing 1 × 10^6 CFU mL^-1 bacteria in MHB or TCM. Plates were incubated at 37°C for 22-24 hours. The MIC alone or in combination was recorded as the lowest antibiotic concentration with no visible growth. For experiments using the LESB58.lux strain no visible growth was defined as an at least 95% reduction compared to the no antibiotic growth control in luminescence detected using a ClarioStar plate reader. The fractional inhibitory concentration index (FICI) was calculated as [(MICA in combination)/MICA] + [(MICB in combination)/MICB]. FICI values of 0.5 or below indicated synergy, while values above 0.5 up to and including 1 were taken to indicate additivity. FICI values above 1 indicate indifference or antagonism ([Odds, 2003]).

P. aeruginosa PAO1 = assay: Minimum inhibitory concentration, broth microdilution; format: cell-based, Pseudomonas aeruginosa; details: for Fold change TCM vs MHB (MIC): MIC in TCM vs MIC in MHB; for MIC: Pseudomonas aeruginosa, PAO1
Method: (§3) For susceptibility testing under standard conditions, bacteria were cultured in Muller Hinton Broth MHB (Fort Richards Laboratories). […] Further susceptibility testing was also conducted in MHB supplemented with FBS (5% v/v) and DMEM supplemented with glucose (1% w/v) and MHB (10% v/v).
(§4) The minimum inhibitory concentration (MIC) of each antibiotic was determined using the broth microdilution method in 96-well plates. […] Briefly, antibiotics were two-fold serially diluted in MHB or TCM prior to adding 1 × 10^6 CFU mL^-1 bacteria. Plates were incubated at 37°C for 22-24 hours. The MIC was recorded as the lowest antibiotic concentration with no visible growth and the median value of at least three biological replicates reported.

P. aeruginosa LESB58 [2] = assay: microbe, parasite or virus in culture; format: cell-based, Pseudomonas aeruginosa; details: for Fold change TCM vs MHB (MIC): MIC in TCM vs MIC in MHB; for MIC: Pseudomonas aeruginosa; for MIC in TCM: TCM (DMEM + 1% glucose + 5% FBS)
Method: as §3
as §4, with “Plates were incubated at 37°C for 22-24 hours.” left out

P. aeruginosa LESB58 [3] = assay: Murine high density subcutaneous skin abscess model; format: in vivo, Pseudomonas aeruginosa; details: for CFU per abscess, Fold change / Area of dermoncecrosis, % reduction: compared to the vehicle control; for CFU per abscess, Fold change / Area of dermoncecrosis, % reduction / CFU per abscess, Geometric mean / Area of dermoncecrosis, Mean: day 3; for Area of dermoncecrosis, Mean: female Swiss Webster mice
Method: Mice used in this study were female Swiss Webster aged approximately 6-7 weeks and sourced from the University of Otago Biomedical Research Facility. […] The subcutaneous abscess infection model was performed as previously described ([Pletzer et al., 2017]) with a higher inoculum. Briefly, the fur on the back of each mouse was removed by shaving and chemical depilation. Antibiotics were tested for skin toxicity by injecting 50 μL of antibiotic suspension subcutaneously into naïve mice, and subsequent inspection of the skin for inflammation on the next day. P. aeruginosa LESB58 was grown to mid-log phase in dYT broth, washed twice in sterile PBS (Gibco, pH 7.4), and resuspended in PBS to ~1 x 10^8 CFU per 50 μL inoculum. The bacterial suspension (50 μL) was injected subcutaneously into the right side of the dorsum, followed one hour later by 50 μL of antibiotic treatment injected directly into the infected area. […] Combination treatments were administered as a single 50 μL injection containing both antibiotics. The concentration of each antibiotic in the combination was the same as when it was used alone. Progression of the infection was monitored daily, and abscess dimensions were measured on day three using a calliper. On day three, abscess tissue and pus were excised, homogenized in sterile PBS using SPEX SamplePrep 1600 MiniG for five minutes and bacterial CFU counts determined by serial dilution. In this model, synergy was defined as being a significant difference between the combination treated group and the amalgamated group of single drug treated animals ([Fantin and Carbon, 1992]; [Pletzer et al., 2018]).
Statistical analysis was performed using GraphPad Prism 9.5.1. Bacterial CFU and abscess size data from in vivo experiments was analysed by Kruskal-Wallace test with Dunn’s correction for multiple comparisons. The data was considered significant when p-values were below 0.05 or 0.01 as indicated.

P. aeruginosa LESB58 [4] = assay: In vitro synergy, checkerboard assay; format: cell-based, Pseudomonas aeruginosa; details: MHB; for FICI, drug combined with CAZ / FICI, drug combined with CZA: FICI <= 0.5 indicates synergy
Method: as §1, §2

[5] = 50 μL injected subcutaneously, skin inspected next day
[6] = female, Swiss Webster, mouse, in vivo, sc, 1 day
[7] = LESB58, read-out: MIC in MHB, MHB, 20-24 h
[8] = LESB58, read-out: MIC in TCM, TCM (DMEM + 1% glucose + 5% FBS), 20-24 h
[9] = Azithromycin group, CAZ or CZA 50 mg/mL, AZM 6.25 mg/mL
[10] = Colistin, tigecycline and tobramycin groups (shared vehicle, CAZ and CZA mice), 50 μL s.c. 1 h after infection, CAZ or CZA 50, CST 1.25, TGC 2.5, TOB 2 mg/mL, vehicle 0.9% saline
[11] = Colistin, tigecycline and tobramycin groups

Row | SMILES | Highest tolerated dose tested [1, 5] | Toxic (visible skin irritation, inflammation, blood vessels, swelling) [1, 6] | Fold decrease in CAZ MIC, drug combined with CAZ (P. aeruginosa LESB58-lux; TCM) | Fold decrease in CZA MIC, drug combined with CZA (P. aeruginosa LESB58-lux; TCM) | Fold decrease in other MIC, drug combined with CAZ (P. aeruginosa LESB58-lux; TCM) | Fold decrease in other MIC, drug combined with CZA (P. aeruginosa LESB58-lux; TCM) | FICI, drug combined with CAZ (P. aeruginosa LESB58-lux; TCM) | FICI, drug combined with CZA (P. aeruginosa LESB58-lux; TCM) | Fold change TCM vs MHB (MIC) (P. aeruginosa PAO1) | MIC (P. aeruginosa PAO1; read-out: MIC in MHB) | MIC (P. aeruginosa PAO1; read-out: MIC in TCM) | Fold change TCM vs MHB (MIC) (P. aeruginosa LESB58 [2]) | MIC (P. aeruginosa LESB58 [2]; [7]) | MIC (P. aeruginosa LESB58 [2]; [8]) | MIC in TCM (P. aeruginosa LESB58 [2]; 20-24 h) | Area of dermoncecrosis, Mean (P. aeruginosa LESB58 [3]; [10]) | Area of dermoncecrosis, % reduction (P. aeruginosa LESB58 [3]; [11]) | CFU per abscess, Fold change (P. aeruginosa LESB58 [3]; [11]) | CFU per abscess, Geometric mean (P. aeruginosa LESB58 [3]; [11]) | Fold decrease in CAZ MIC, drug combined with CAZ (P. aeruginosa LESB58 [4]) | also measured
1 | CC[C@H]1OC(=O)[C@H](C)[C@@H](O[C@H]2C[C@@](C)(OC)[C@@H](O)[C@H](C)O2)[C@H](C)[C@@H](O[C@@H]2O[C@H](C)C[C@H](N(C)C)[C@H]2O)[C@](C)(O)C[C@@H](C)CN(C)[C@H](C)[C@@H](O)[C@]1(C)O [AZM, azithromycin] | 25 mg/mL | 50 mg/mL | 8 | 2 | 2 | 2 | 0.625 | 1 | >-300 | 250 µg/mL (≈ 334 µM) | < 0.78 µg/mL | -100 | 62.5 µg/mL (≈ 83.4 µM) | 0.625 µg/mL | – | – | – | – | – | – | Fold decrease in CAZ MIC, drug combined with CAZ (P. aeruginosa LESB58-lux; MHB): 4; Fold decrease in CZA MIC, drug combined with CZA (P. aeruginosa LESB58-lux; MHB): 4; Fold decrease in other MIC, drug combined with CAZ (P. aeruginosa LESB58-lux; MHB): 4; Fold decrease in other MIC, drug combined with CZA (P. aeruginosa LESB58-lux; MHB): 2; FICI, drug combined with CAZ (P. aeruginosa LESB58-lux; MHB): 0.5; FICI, drug combined with CZA (P. aeruginosa LESB58-lux; MHB): 0.75; FICI, drug combined with CZA (P. aeruginosa LESB58-lux; MHB, listed as azithromycin): did not act synergistically; Fold increase of efficacy in TCM compared to MHB (P. aeruginosa LESB58 [2]; host mimicking TCM vs MHB): 100; Fold reduction of bacterial load (CFU) relative to vehicle (P. aeruginosa LESB58 [3]; Azithromycin experiments): ~ 42; CFU per abscess, Fold change (P. aeruginosa LESB58 [3]; Azithromycin group): -42.1; Area of dermoncecrosis, % reduction (P. aeruginosa LESB58 [3]; [9]): 36.4%; Area of dermoncecrosis, % reduction (P. aeruginosa LESB58 [3]; Azithromycin group, CAZ or CZA 50 mg/mL, AZM 6.25 mg/mL, listed as azithromycin): 36%; CFU per abscess, Geometric mean (P. aeruginosa LESB58 [3]; [9]): 8.5 × 10^6 CFU per abscess; Area of dermoncecrosis, Mean (P. aeruginosa LESB58 [3]; Azithromycin group, 50 μL s.c. into infected area 1 h after infection, CAZ or CZA 50 mg/mL, AZM 6.25 mg/mL, vehicle citric acid in saline): 64.5 mm^2
2 | CC[C@H](C)CCCCC(=O)N[C@@H](CCN)C(=O)N[C@H](C(=O)N[C@@H](CCN)C(=O)N[C@H]1CCNC(=O)[C@H]([C@@H](C)O)NC(=O)[C@H](CCN)NC(=O)[C@H](CCN)NC(=O)[C@H](CC(C)C)NC(=O)[C@@H](CC(C)C)NC(=O)[C@H](CCN)NC1=O)[C@@H](C)O [CST, colistin] (HELM PEPTIDE1{[CC[C@H](C)CCCCC(=O)[*:2]].[Dab].T.[Dab].[Dab].[Dab].[dL].L.[Dab].[Dab].T}$PEPTIDE1,PEPTIDE1,5:R3-11:R2$$$V2.0) | 2 mg/mL | – | 8 | 4 | 4 | 4 | 0.38 | 0.5 | 10 | – | – | – | – | – | 12.5 µg/mL | 38.6 mm^2 | 58.9% | -107.4 | 2.3 × 10^6 CFU per abscess | 4 | Toxic (visible skin irritation, inflammation, blood vessels, swelling) [1, 5]: 5 mg/mL; FICI, drug combined with CAZ (P. aeruginosa LESB58-lux; TCM, listed as colistin): synergised; FICI, drug combined with CZA (P. aeruginosa LESB58-lux; TCM, listed as colistin): synergised; MIC in MHB (P. aeruginosa PAO1; MHB): 2.5 µg/mL (≈ 2.14 µM); MIC in TCM (P. aeruginosa PAO1; TCM): 25 µg/mL (≈ 21.4 µM); MIC in MHB (P. aeruginosa LESB58 [2]; MHB, 20-24 h): 3.13 µg/mL (≈ 2.68 µM); Area of dermoncecrosis, % reduction (P. aeruginosa LESB58 [3]; Colistin, tigecycline and tobramycin groups, listed as colistin): 59%; Fold reduction of bacterial load (CFU) relative to vehicle (P. aeruginosa LESB58 [3]; Colistin, tigecycline, tobramycin experiments): ~107; Fold decrease in CZA MIC, drug combined with CZA (P. aeruginosa LESB58 [4]): 4; Fold decrease in other MIC, drug combined with CAZ (P. aeruginosa LESB58 [4]): 8; Fold decrease in other MIC, drug combined with CZA (P. aeruginosa LESB58 [4]): 8; FICI, drug combined with CAZ (P. aeruginosa LESB58 [4]): 0.38
3 | CN(C)c1cc(NC(=O)CNC(C)(C)C)c(O)c2c1C[C@H]1C[C@H]3[C@H](N(C)C)C(O)=C(C(N)=O)C(=O)[C@@]3(O)C(O)=C1C2=O [TGC, tigecycline] | 12 mg/mL | 25 mg/mL | – | – | – | – | – | – | >40 | 12.5 µg/mL (≈ 21.3 µM) | > 500 µg/mL | >80 | 6.25 µg/mL (≈ 10.7 µM) | > 500 µg/mL | entirely lost its efficacy | 86.7 mm^2 | 7.7% | -2.4 | 1.0 × 10^8 CFU per abscess | 4 | Fold decrease in CZA MIC, drug combined with CZA (P. aeruginosa LESB58 [4]): 8; Fold decrease in other MIC, drug combined with CAZ (P. aeruginosa LESB58 [4]): 8; Fold decrease in other MIC, drug combined with CZA (P. aeruginosa LESB58 [4]): 8; FICI, drug combined with CAZ (P. aeruginosa LESB58 [4]): 0.38; FICI, drug combined with CZA (P. aeruginosa LESB58 [4]): 0.25; FICI, drug combined with CAZ (P. aeruginosa LESB58 [4]; listed as tigecycline): < 0.4; FICI, drug combined with CZA (P. aeruginosa LESB58 [4]; listed as tigecycline): < 0.4

— article PMC11130353, “Using host-mimicking conditions and a murine cutaneous abscess model to identify synergistic antibiotic combinations effective against Pseudomonas aeruginosa” (Frontiers in Cellular and Infection Microbiology, 2024)
